What was measured:
[1] = test system: A549 cells; assay: Effect upon TGF-β1 treatment in A549 cells (western blot of protein levels); assay type: cell-based; conditions: 5 ng/mL TGF-β1 and compound, 24 hours, FIG. 30
Description: 3.5*10^5 A549 cells, derived from lung cancer, were suspended in a medium, dispensed into a 60-mm plate, and incubated for 48 hours. After 48 hours of incubation, each plate was treated with TGF-β1 (10 ng/ml) alone or in combination with novel flavone derivative I at varying concentrations or a predetermined concentration and/or nintedanib (NIDB), a therapeutic drug for idiopathic pulmonary fibrosis and interstitial lung disease as a positive control. […] Next, only the supernatant was collected by centrifugation (at 14,000 rpm for 10 minutes) at 4° C., and the proteins were separated by SDS-polyacrylamide gel electrophoresis (SDS-PAGE). The separated proteins were transferred to a polyvinylidene difluoride membrane (PVDF membrane), reacted in 5% nonfat dry milk for 3 hours, and then reacted with primary antibodies at 4° C. for 12 hours. After 12 hours, the proteins further reacted with secondary antibodies corresponding to the respective primary antibodies. Then, the protein band was examined, according to the manufacturer's protocol, using an ECL kit.
The effect of novel flavone derivative II upon TGF-β1 treatment in A549 cells was evaluated in the same manner as in Example 1 above. FIGS. 20 and 21 show the results thereof.
The effect of novel flavone derivative III upon TGF-β1 treatment in A549 cells was evaluated in the same manner as in Example 1 above.

[2] = test system: HLF cells; assay: MTT cytotoxicity evaluation in HLF cells; assay type: cell-based, human; conditions: concentrations of 15 and 20 μM, incubated for 24 hours, compared to untreated control
Description: (§1) To confirm the effect of novel flavone derivative I on cell viability, human lung fibroblasts (HLF) were used to examine cell viability with MTT [3-(4,5-dimethylthiazol-2-yl)-2,5-diphenyltetrazolium bromide]. After being suspended in a medium, HLF cells were dispensed into a 96-well plate and incubated for 24 hours. […] After incubation, all media was removed, and MTT was diluted (0.5 mg/mL) in phosphate-buffered saline (PBS). Then, 200 μL of the diluted MTT was dispensed into each well, and incubation was performed in a CO2 incubator for 4 hours. After 4 hours, the MTT solution was removed, and 160 μL of dimethyl sulfoxide (DMSO) was dispensed into each well to dissolve the formazan precipitate for 30 minutes. Next, the absorbance was measured at 570 nm.
(§2) Cytotoxicity tests of novel flavone derivative II (Achem II) on A549 cells, HULEC-5a cells, and HLF cells were performed in the same manner as in Example 1 above, using the MTT assay. The results thereof are shown in FIGS. 17 to 19 as cell viability (%) after 24, 48, and 72 hours compared to that of the control group, the untreated sample group.
as §2, with “III” for “II”, “III)” for “II)”, “27” for “17”, “29” for “19”

[3] = test system: HULEC-5a cells; assay: MTT cytotoxicity evaluation in HULEC-5a cells; assay type: cell-based, human; conditions: compared to untreated control
Description: as §1, with “viability, HULEC-5a,” for “viability,”, “microvascular endothelial cells,” for “fibroblasts (HLF)”, “HULEC-5a” for “HLF”
as §2
as §2, with “III” for “II”, “III)” for “II)”, “27” for “17”, “29” for “19”

[4] = test system: HULEC-5a cells; assay: Effect upon TGF-β1 treatment in Hulec-5a cells (western blot of protein levels); assay type: cell-based, human; conditions: Hulec-5a cells, 5 ng/mL TGF-β1 and compound, 24 hours, FIG. 31
Description: (§3) 1.2×10^6 Hulec-5a cells, derived from pulmonary vessels, were suspended in a medium, dispensed into a 100-mm plate, and incubated for 24 hours. After 24 hours of incubation, each plate was treated with TGF-β1 (10 ng/ml) alone or in combination with novel flavone derivative I at varying concentrations or a predetermined concentration and/or nintedanib (NIDB), a therapeutic drug for idiopathic pulmonary fibrosis and interstitial lung disease. After 3, 24, and 48 hours of incubation, the cells were lysed with RIPA lysis buffer ([50 mM Tris]-Cl (pH, 7.4), 1% NP-40, 150 mM NaCl, 1 mM EDTA, and 1 mM phenylmethylsulfonyl fluoride (PMSF)) containing MG-132 (10 μM, proteasome inhibitor, protect the HIF-1α subunit from proteasome degradation). Next, only the supernatant was collected by centrifugation (at 13,000 rpm for 7 minutes) at 4° C., and the proteins were separated by SDS-polyacrylamide gel electrophoresis (SDS-PAGE). The separated proteins were transferred to a polyvinylidene difluoride membrane (PVDF membrane), reacted in 5% nonfat dry milk for 2 hours, and then reacted with primary antibodies at 4° C. overnight. After overnight, the proteins further reacted with secondary antibodies corresponding to the respective primary antibodies. Then, the protein band was examined, according to the manufacturer's protocol, using an ECL kit.
The effect of novel flavone derivative II upon TGF-β1 treatment in Hulec-5a cells was evaluated in the same manner as in Example 1 above.
The effect of novel flavone derivative III upon TGF-β1 treatment in Hulec-5a cells was evaluated in the same manner as in Example 1 above.

[5] = test system: A549 cells; assay: MTT cytotoxicity evaluation in A549 cells; assay type: cell-based; conditions: all treatment concentrations up to 20 μM, incubated for 24, 48, and 72 hours, compared to untreated control
Description: To confirm the effect of novel flavone derivative I on cell viability, A549 cells, derived from lung cancer, were used to examine cell viability with MTT [3-(4,5-dimethylthiazol-2-yl)-2,5-diphenyltetrazolium bromide]. After being suspended in a medium, A549 cells were dispensed into a 96-well plate and incubated for 24 hours. After 24 hours, 200 μL of a medium containing 0 to 20 μM BGC was added to each well of the plate and incubated for 24 or 48 hours. After incubation, MTT was diluted (0.5 mg/ml) in phosphate-buffered saline (PBS). Then, 20 μL of the diluted MTT was dispensed into each well, and incubation was performed in a CO2 incubator for 4 hours. After 4 hours, the MTT solution was removed, and 200 μL of dimethyl sulfoxide (DMSO) was dispensed into each well to dissolve the formazan precipitate for 5 minutes. Next, the absorbance was measured at 595 nm.
as §2
as §2, with “III” for “II”, “III)” for “II)”, “27” for “17”, “29” for “19”

[6] = test system: HLF cells; assay: Effect upon TGF-β1 treatment in HLF cells (western blot of protein levels); assay type: cell-based, human; conditions: 5 ng/mL TGF-β1 and compound, 24 hours, FIG. 32
Description: as §3, with “After suspending 5×10^6 human lung fibroblast (HLF) cells in a medium, […]” for “1.2×10^6”, “[…]” for “in a”, “hours. […]” for “hours.”, “24” for “24 hours of incubation, each plate was treated with TGF-β1 (10 ng/ml) alone or in combination with novel flavone derivative I at varying concentrations or a predetermined concentration and/or nintedanib (NIDB), a therapeutic drug for idiopathic pulmonary fibrosis and interstitial lung disease. After 3, 24,”
The effect of novel flavone derivative II upon TGF-β1 treatment in HLF cells was evaluated in the same manner as in Example 1 above.
The effect of novel flavone derivative III upon TGF-β1 treatment in HLF cells was evaluated in the same manner as in Example 1 above.

Question: Which results are given for `COc1ccc(-c2c(-c3ccc(O)c(OC)c3)oc3cc(OC)c(OC)cc3c2=O)cc1` [novel flavone derivative III, 2-(4-hydroxy-3-methoxyphenyl)-6,7-dimethoxy-3-(4-methoxyphenyl)-4H-chromen-4-one]?
Answer: levels of fibronectin, COL4, and COL3, increased by TGF-β1 treatment [1]: decreased; cell viability [2]: ≤ 80%; cell viability ([3]; concentration of 20 μM, incubated for 24 hours): ≤ 80%; cell viability ([3]; concentrations up to 15 μM, incubated for 24, 48, and 72 hours): ≥ 80%; levels of fibronectin, COL4, and COL3, increased by TGF-β1 treatment [4]: decreased; cell viability [5]: ≥ 80%; levels of fibronectin, COL4, COL1, α-SMA, HIF-1α, and NOX2, increased by TGF-β1 treatment [6]: decreased
